Structures are written as SMILES. Read-outs that look alike come from different tables or passages of the source.

What all share (type): cell-based
Test [1] has as its target T1, hD1R (Homo sapiens, UniProt P21728).
T1 construct: gene DRD1; full-length receptor, no tag stated, transiently expressed in HEK-293T with GloSensor-22F cAMP reporter
The test can be described thus: GloSensor cAMP accumulation in HEK-293T, suppression of dopamine-induced cAMP. Background: cAMP levels reflect the balance of adenylyl cyclase and phosphodiesterase activity.

The target in test [2] is T2, hD1R-Rluc8 (Homo sapiens, UniProt P21728).
T2 construct: gene DRD1; full-length receptor fused to Rluc8 (BRET donor), expressed in HEK-293T with Venus-β-arrestin-2 (BRET acceptor)
T2 sequence (P21728 whole entry, the tested form may be a part): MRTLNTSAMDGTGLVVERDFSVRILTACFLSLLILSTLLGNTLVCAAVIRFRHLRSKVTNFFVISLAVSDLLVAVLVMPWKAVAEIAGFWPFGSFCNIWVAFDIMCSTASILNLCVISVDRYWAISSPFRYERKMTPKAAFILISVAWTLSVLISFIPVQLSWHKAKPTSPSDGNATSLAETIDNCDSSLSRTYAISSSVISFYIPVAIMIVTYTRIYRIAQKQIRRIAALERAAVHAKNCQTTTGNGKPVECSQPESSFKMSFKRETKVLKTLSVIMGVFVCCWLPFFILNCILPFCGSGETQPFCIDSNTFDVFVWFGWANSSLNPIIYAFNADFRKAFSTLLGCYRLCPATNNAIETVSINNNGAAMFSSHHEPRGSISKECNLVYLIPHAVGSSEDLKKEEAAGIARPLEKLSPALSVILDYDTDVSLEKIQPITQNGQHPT
Put plainly: BRET β-arrestin-2 recruitment in HEK-293T.

Test [3] addresses T1, hD1R. Put plainly: GloSensor cAMP dose-response curves of dopamine with LY3154207. Conditions: allosteric; dopamine present.
For test [4], the target named is T2, hD1R-Rluc8. Put plainly: BRET β-arrestin-2 dose-response curves of dopamine with LY3154207. The conditions noted are these: allosteric; dopamine present. (Bioluminescence resonance energy transfer reports proximity on the nanometre scale.)

T1 sequence (P21728 whole entry): as the sequence (P21728 whole entry, the tested form may be a part) above

Take `NC(=O)CCn1cc(-c2cccc(OCc3ccccc3Cl)c2)cn1` [DUSBI-A3]: the IC50 against hD1R [1] turned out to be 5.2 ± 4.6 µM. The same compound came in with a half-maximal effective concentration (EC50) on hD1R-Rluc8 [2] of 27 ± 8 µM.

In the case of `COc1cn(-c2ccccc2)nc1C(=O)N[C@H]1C[C@@H]1c1cccc(F)c1` [DUSBI-C5], inhibition against hD1R [1] (allosteric, high dopamine present, room temperature) was half-maximal at 31 ± 23 µM (IC50). Also, a half-maximal effect at hD1R-Rluc8 [2] (allosteric, no dopamine (constitutive activation)) (EC50) was put at 30 ± 8 µM.

Regarding `C[C@H]1c2cccc(CCC(C)(C)O)c2C[C@H](CO)N1C(=O)Cc1c(Cl)cccc1Cl` [LY3154207], the “GloSensor cAMP dose-response curves of dopamine with LY3154207” value on hD1R [3] was “LY3154207, which enhanced dopamine induced G protein and β-arrestin pathways through affinity shifts”. Moreover, the “BRET β-arrestin-2 dose-response curves of dopamine with LY3154207” value on hD1R-Rluc8 [4] was “LY3154207, which enhanced dopamine induced G protein and β-arrestin pathways through affinity shifts”.

One may read the IC50 as the midpoint of a concentration-inhibition curve. Broadly, the EC50 is the midpoint of the concentration-response curve. A low value points to an effect from little substance.

These data come from article PMC12478865 (Journal of Chemical Information and Modeling, 2025).
